Like-named read-outs stand apart in the source and are kept apart here.
Legend:
[1] = Kinetics of enzymatic hydrolysis in plasma; type: in vitro ADME; details: 37°C; for half-life at 40 µg/mL: pH 7.4, read-out: t½ (converted)
Method: The HPLC system consisted of a Waters 600 HPLC pump (Waters Corporation, Milford, MA, USA), equipped with a Waters 2996 photodiode array detector. The column was a Kinetex RP-C8 column (3.0 x 150 mm, 5 μm). The mobile phase consisted of 0.1% TFA in acetonitrile/0.1% TFA in 95% H2O and 5% acetonitrile 50:50, under isocratic conditions at a flow rate of 1 mL/min. The UV detector was set at a length of 220 nm.
The enzymatic hydrolysis was evaluated in human and rat plasma. […] A volume of 200 μL of this solution was added with pre-heated (37°C) plasma fractions (4 mL) previously diluted with 0.02 M phosphate buffer (pH 7.4) to give a final volume of 5 mL (80% plasma). Aliquots (100 μL) were taken at various times and deproteinized by mixing with 200 μL of 0.01 M HCl in methanol. After centrifugation for 5 min at 5000 × g, 10 μL of the supernatant layer were analysed by chromatography as described above. The amounts of remaining intact compound were plotted as a function of incubation time.

[2] = Lipophilicity LogP (experimental); type: physicochemical; details: mean of three experiments (SD)
Text: Table 3 Physicochemical properties of carvacrol codrug 4. | column: Lipophilicity / LogP ^a

kobs ([1]; 80% human plasma): 1.38 (± 0.03) h^-1
kobs ([1]; 80% rat plasma): 1.38 (± 0.05) h^-1
half-life at 40 µg/mL ([1]; 80% human plasma): 30 min
half-life at 40 µg/mL ([1]; 80% rat plasma): 30 min
logP [2]: 1.21
Structure (SMILES): C=CCSC[C@H](NC(C)=O)C(=O)Oc1cc(C(C)C)ccc1C [codrug 4, N-Ac-Cys(Allyl)-CAR]

Reference: PMC4393269, “Carvacrol Codrugs: A New Approach in the Antimicrobial Plan” (PLoS ONE, 2015)
